Tested on: HCV 1b genotype replicon
Test: HCV genotype-1b replicon assay (qRT-PCR or luciferase)
Format: cell-based
Conditions: Hepatitis C virus, read-out: Genotype-1b replicon EC50 Range
Description: HCV replicon cell lines (kindly provided by R. Bartenschlager) isolated from colonies as described by Lohman et. al. (Lohman et al. (1999) Science 285: 110-113, expressly incorporated by reference in its entirety) and used for all experiments. The HCV replicon has the nucleic acid sequence set forth in EMBL Accession No.: AJ242651, the coding sequence of which is from nucleotides 1801 to 8406.
The coding sequence of the published HCV replicon was synthesized and subsequently assembled in a modified plasmid pBR322 (Promega, Madison, Wis.) using standard molecular biology techniques. […]
EC50 values of single agent compounds and combinations were determined by HCV RNA detection using quantitative RT-PCR, according to the manufacturer's instructions, with a TAQMAN® One-Step RT-PCR Master Mix Reagents Kit (Cat # AB 4309169, Applied Biosystems) on an ABI Model 7500 thermocycler. The TaqMan primers used for detecting and quantifying HCV RNA were obtained from Integrated DNA Technologies. HCV RNA was normalized to GAPDH RNA levels in drug-treated cells, which was detected and quantified using the Human GAPDH Endogenous Control Mix (Applied Biosystems, AB 4310884E). […] Chemical agent cytotoxicity was evaluated using an MTS assay according to the manufacturer's directions (Promega). […]

`COC(=O)N[C@H](C(=O)N1CCC(C(=O)Nc2ccc(-c3ccc(NC(=O)C4CCN(C(=O)[C@@H](NC(=O)OC)C(C)C)C4)cc3)cc2)C1)C(C)C` (stereo partly shown) [Example 295] gave an EC50 of over 10 nM.

From patent US8703938B2, “Hepatitis C virus inhibitors” (Enanta Pharmaceuticals, Inc., priority 2009, dated 2014)
